Data on six compounds can be found in ChEMBL document CHEMBL3860092, “Recent progress on the discovery of antiamoebic agents” (Bioorg Med Chem Lett, 2016).

pIC50: −log10 of the molar value.

For one data set, the system named is Entamoeba histolytica. Put plainly: Antiamoebic activity against Entamoeba histolytica HM-1:IMSS trophozoites after 72 hrs by microdilution method. Type of data set: functional. (In general: Dilution methods test growth across graded concentrations, often in twofold steps.)
A short description of data set [1]: Cytotoxicity against mouse Melan-a cells assessed as reduction in cell viability after 48 hrs by MTT assay. Type of data set: toxicity. (In general: Tetrazolium dyes change colour on reduction, which living cells bring about.)

For `Cc1ncc([N+](=O)[O-])n1CCO` [METRONIDAZOLE], the negative-log IC50 (pIC50) with Entamoeba histolytica is 5.75.
In the case of `Cc1ncc([N+](=O)[O-])n1CCOC(=O)Nc1ccc(OCc2cccc(Cl)c2)cc1`, the negative logarithm of the IC50 (pIC50) in the data set with Entamoeba histolytica is 6.82. Also, the 50% inhibitory concentration (IC50) at 48 h in data set [1] was above 50000 nM.
In the data set on Entamoeba histolytica, `Cc1ncc([N+](=O)[O-])n1CCOC(=O)Nc1ccc(OCc2ccc(C#N)cc2)cc1` had a pIC50 of 6.59. The IC50 at 48 h in data set [1] is above 50000 nM.
For `Cc1ncc([N+](=O)[O-])n1CCOC(=O)Nc1ccc(OCc2ccc(F)c(F)c2)cc1` the same measures were 6.59 and above 50000 nM.
The compound `Cc1ncc([N+](=O)[O-])n1CCOC(=O)Nc1ccc(OCc2ccc(C(F)(F)F)cc2)cc1` had a pIC50 with Entamoeba histolytica of 6.62. Besides, the IC50 at 48 h in data set [1] was above 50000 nM.
`Cc1ncc([N+](=O)[O-])n1CCOC(=O)Nc1ccc(OCc2ccc(F)cc2)cc1`: the pIC50 with Entamoeba histolytica is 7.10. For the same compound, in data set [1], the IC50 at 48 h was above 50000 nM.

A word on the pIC50: it is −log10 of the IC50, conventionally taken in molar units. Low readings indicate a large IC50, high ones a small IC50. By IC50 is commonly meant the concentration that inhibits the measured activity by half.
